In US12043600B2, “Microbiocidal compounds” (SYNGENTA CROP PROTECTION AG, priority 2018, dated 2024) one finds inhibition of growth, pest or weed control and melting point data, which are given here for nine molecules.

Data set [1] relates to Monographella nivalis (Microdochium nivale). As to the kind of experiment: Monographella nivalis (Microdochium nivale)/Liquid Culture (Foot Rot Cereals). It counts as cell-based. Particulars: liquid culture, compared to untreated control. The procedure, abridged:
(§1)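 PDB + cryo-stored conidia; compound in DMSO pre-plated, spore broth added on top.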

Data set [2] deals with Mycosphaerella graminicola (Septoria tritici). Put plainly: Mycosphaerella graminicola (Septoria tritici)/Liquid Culture (Septoria Blotch). It counts as cell-based. Particulars: Zymoseptoria tritici; 20 ppm; liquid culture; compared to untreated control. The procedure, abridged: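 Results given as % disease control: test compound in DMSO was placed in wells first, then potato dextrose broth carrying cryostored fungal conidia was added.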

In data set [3] the test system is Puccinia recondita f. sp. tritici. Put plainly: Puccinia recondita f. sp. tritici/Wheat/Leaf Disc Curative (Brown Rust). In kind it is in vivo. Particulars: foliar, wheat leaf disc curative, compared to untreated control. The gist of the method: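 Formulated compound, diluted in water, is applied to inoculated wheat cv. Kanzler leaf segments on agar one day post-inoculation (pre-incubation dark, 19° C, 75% rh). After 6-8 days at 19° C, 75% rh and 12 h/12 h light, activity is rated as percent disease control relative to untreated segments.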

Data set [4] has as its system Blumeria graminis f. sp. tritici (Erysiphe graminis f. sp. tritici). As to the kind of experiment: Blumeria graminis f. sp. tritici/Wheat/Leaf Disc Preventative (Powdery Mildew on Wheat). In kind it is in vivo. Conditions: foliar, wheat leaf disc preventative, compared to untreated control. The gist of the method:
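Preventative leaf-disc test: percent disease control versus untreated leaf segments read 6-8 days post-application. Compound spray applied to wheat cv. Kanzler segments on agar one day before shaking infected plants over them; incubation at 20° C and 60% rh, 24 h darkness then 12 h light/12 h dark cycles.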

The subject of a further data set is Alternaria solani. As to the kind of experiment: Alternaria solani/Tomato/Leaf Disc (Early Blight). It counts as in vivo. Particulars: foliar, tomato leaf disc, compared to untreated control. On the procedure:
Tomato leaf disks cv. Baby are placed on agar in multiwell plates (24-well format) and sprayed with the formulated test compound diluted in water. The leaf disks are inoculated with a spore suspension of the fungus 2 days after application. The inoculated leaf disks are incubated at 23° C./21° C. (day/night) and 80% rh (relative humidity) under a light regime of 12/12 h (light/dark) in a climate cabinet and the activity of a compound is assessed as percent disease control compared to untreated when an appropriate level of disease damage appears on untreated check disk leaf disks (5-7 days after application).

Data set [5] concerns Mycosphaerella arachidis (Cercospora arachidicola). As to the kind of experiment: Mycosphaerella arachidis (Cercospora arachidicola)/Liquid Culture (Early Leaf Spot). It counts as cell-based. Particulars: liquid culture, compared to untreated control. The gist of the method: as §1
The subject of data set [6] is Puccinia recondita f. sp. tritici. Put plainly: Puccinia recondita f. sp. tritici/Wheat/Leaf Disc Preventative (Brown Rust). In kind it is in vivo. Particulars: foliar, 200 ppm, wheat leaf disc preventative, compared to untreated control, read-out: control of Puccinia recondita f. sp. tritici.
Data set [7] has as its system Glomerella lagenarium (Colletotrichum lagenarium). As to the kind of experiment: Glomerella lagenarium (Colletotrichum lagenarium)/Liquid Culture (Anthracnose). In kind it is cell-based. Conditions: Colletotrichum orbiculare, liquid culture, compared to untreated control.
A further data set relates to Phakopsora pachyrhizi. Put plainly: Phakopsora pachyrhizi/Soybean/Preventative (Soybean Rust). It counts as in vivo. Conditions: foliar, 288 h, 200 ppm, soybean leaf disc preventative, compared to untreated control, read-out: control of Phakopsora pachyrhizi.
The next data set relates to Plasmopara viticola. Put plainly: whole plant or invertebrate. In kind it is in vivo. Particulars: foliar, read-out: control of Plasmopara viticola.
In data set [8] the test system is Magnaporthe grisea (Pyricularia oryzae). Put plainly: whole plant or invertebrate. Conditions: foliar, read-out: control of Magnaporthe grisea. It counts as in vivo.
Data set [9] deals with Botryotinia fuckeliana (Botrytis cinerea). As to the kind of experiment: Botryotinia fuckeliana (Botrytis cinerea)/Liquid Culture (Gray Mould). It counts as cell-based. Conditions: liquid culture, compared to untreated control. On the procedure:
Conidia of the fungus from cryogenic storage are directly mixed into nutrient broth (Vogels broth). After placing a (DMSO) solution of test compound into a microtiter plate (96-well format), the nutrient broth containing the fungal spores is added.

Another data set relates to Pyrenophora teres. As to the kind of experiment: Pyrenophora teres/Barley/Leaf Disc Preventative (Net Blotch). In kind it is in vivo. Conditions: foliar, 200 ppm, barley leaf disc preventative, compared to untreated control, read-out: control of Pyrenophora teres. An excerpt:
Barley leaf segments cv. Hasso are placed on agar in a multiwell plate (24-well format) and sprayed with the formulated test compound diluted in water. The leaf segments are inoculated with a spore suspension of the fungus 2 days after application. […] The data are presented as the percentage of disease control of each compound for the biological tests against G. lagenarium (Example B3), P. recondita preventative (Example B13), P. teres (Example B15) and M. graminicola (Example B19) as described above. The testing rates of each biological test is specifically described in table C1 below.

The next data set has as its system Phytophthora infestans. Put plainly: whole plant or invertebrate. It counts as in vivo. Particulars: in Solanum lycopersicum, foliar, read-out: control of Phytophthora infestans.
Data set [10] has as its system Phaeosphaeria nodorum (Septoria nodorum). Put plainly: Phaeosphaeria nodorum (Septoria nodorum)/Wheat/Leaf Disc Preventative (Glume Blotch). It counts as in vivo. Conditions: Parastagonospora nodorum, foliar, wheat leaf disc preventative, compared to untreated control. The procedure, abridged:
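Preventative test: compound spray first, then spore inoculation after 2 days on cv. Kanzler wheat leaf segments. Incubation in a climate cabinet at 20 °C and 75% rh under a 12 h light/12 h dark cycle. Activity rated as % control relative to untreated discs at 5–7 days post-application.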

Structures are written as SMILES.

As usually defined, the inhibition of growth is the relative decrease from the control value, in per cent. High values mean a strong effect, low ones a weak effect. For the molecule `CO/C=C(\Oc1cccc(-n2ccc(C(F)(F)F)n2)c1)C(=O)OC` [Compound E-15, methyl (Z)-3-methoxy-2-[3-[3-(trifluoromethyl)pyrazol-1-yl]phenoxy]prop-2-enoate], the inhibition of growth at 20 ppm in [1], in data set [2], in data set [5] and in data set [7] was ≥ 80% throughout. The pest or weed control at 200 ppm (in [3]; in data set [4]; in the data set with Alternaria solani; in data set [6]) was ≥ 80% in each case.
By melting point is commonly meant the temperature of the solid-liquid transition. Molecule `CO/C=C(\Oc1cc(-n2ccc(C)n2)c(C)cc1C)C(=O)OC` [Compound E-17, methyl (Z)-2-[2,4-dimethyl-5-(3-methylpyrazol-1-yl)phenoxy]-3-methoxy-prop-2-enoate] showed a melting point of 123 to 124 °C. For the same molecule, the inhibition of growth at 20 ppm in data set [1] was ≥ 80%. The inhibition of growth at 20 ppm in [2] is ≥ 80%. Moreover, the pest or weed control at 200 ppm in data set [3] is ≥ 80%. Further, in data set [4], the pest or weed control at 200 ppm is ≥ 80%. In addition, the pest or weed control at 200 ppm in the data set with Alternaria solani was ≥ 80%. The inhibition of growth at 20 ppm in data set [5] is ≥ 80%. Besides, the pest or weed control at 200 ppm in [6] is ≥ 80%.
As to `CO/C=C(\Oc1cc(-n2ccc(C(F)(F)F)n2)c(Cl)cc1C)C(=O)OC` [Compound E-27, methyl (Z)-2-[4-chloro-2-methyl-5-[3-(trifluoromethyl)pyrazol-1-yl]phenoxy]-3-methoxy-prop-2-enoate], the inhibition of growth at 20 ppm in data set [1], in data set [2], in data set [5] and in data set [7] was ≥ 80% throughout. For the same molecule, the pest or weed control at 200 ppm is ≥ 50% with Phakopsora pachyrhizi; ≥ 80% with Plasmopara viticola; ≥ 80% in data set [3]; ≥ 80% in data set [4]; ≥ 80% with Alternaria solani; ≥ 80% in data set [6]. Moreover, the pest or weed control at 200 ppm in [8] is ≥ 80%.
Turning to `CO/C=C(\Oc1cc(-n2cc(Cl)cn2)ccc1C)C(=O)OC` [Compound E-54, methyl (Z)-2-[5-(4-chloropyrazol-1-yl)-2-methyl-phenoxy]-3-methoxy-prop-2-enoate], the inhibition of growth at 20 ppm in data set [1], in data set [2], in data set [5], in [9] and in data set [7] was ≥ 80% each time. Further, the pest or weed control at 200 ppm (in the data set with Plasmopara viticola; in data set [4]; in data set [6]; with Pyrenophora teres; in the data set on Phytophthora infestans; in [10]) was ≥ 80% each time.
Consider `CO/C=C(\Oc1cc(-n2cc(C)c(C(F)(F)F)n2)ccc1C)C(=O)OC` [Compound E-75, methyl (Z)-3-methoxy-2-[2-methyl-5-[4-methyl-3-(trifluoromethyl)pyrazol-1-yl]phenoxy]prop-2-enoate], for which the melting point was in the range of 131 to 134 °C. For the same molecule, the inhibition of growth at 20 ppm in [1] was ≥ 80%. Further, the pest or weed control at 200 ppm in the data set on Plasmopara viticola is ≥ 80%. The inhibition of growth at 20 ppm in [2] is ≥ 80%. Also, the pest or weed control at 200 ppm in data set [4] was ≥ 80%. Moreover, in data set [5], the inhibition of growth at 20 ppm was ≥ 80%. In addition, the inhibition of growth at 20 ppm in data set [9] was ≥ 80%. Also, the pest or weed control at 200 ppm in [6] is ≥ 80%. In addition, the pest or weed control at 200 ppm with Pyrenophora teres is ≥ 80%. The pest or weed control at 200 ppm in [10] is ≥ 80%.
Consider `CO/C=C(\Oc1cc(-n2cc(C(F)(F)F)cn2)ccc1C)C(=O)OC` [Compound E-81, methyl (Z)-3-methoxy-2-[2-methyl-5-[4-(trifluoromethyl)pyrazol-1-yl]phenoxy]prop-2-enoate], for which the melting point lay in the range of 102 to 105 °C. Further, the inhibition of growth at 20 ppm in [1] was ≥ 80%. The pest or weed control at 200 ppm in the data set on Phakopsora pachyrhizi was ≥ 50%. In the data set on Plasmopara viticola, the pest or weed control at 200 ppm is ≥ 80%. In addition, the inhibition of growth at 20 ppm in [2] was ≥ 80%. Also, the pest or weed control at 200 ppm in data set [4] was ≥ 80%. Besides, the inhibition of growth at 20 ppm in data set [5] is ≥ 80%. Moreover, in data set [9], the inhibition of growth at 20 ppm was ≥ 80%. Also, the pest or weed control at 200 ppm in [6] was ≥ 80%. Further, the pest or weed control at 200 ppm in [8] was ≥ 80%. For the same molecule, the pest or weed control at 200 ppm in the data set with Pyrenophora teres is ≥ 80%. In addition, the pest or weed control at 200 ppm in the data set on Phytophthora infestans is ≥ 80%. In addition, the pest or weed control at 200 ppm in data set [10] is ≥ 80%. Further, the inhibition of growth at 20 ppm in data set [7] was ≥ 80%.
`CO/C=C(\Oc1cc(-n2cc(C)c(C3CCCCC3)n2)ccc1C)C(=O)OC` [Compound E-113, methyl (Z)-2-[5-(3-cyclohexyl-4-methyl-pyrazol-1-yl)-2-methyl-phenoxy]-3-methoxy-prop-2-enoate] gave a melting point of 145 to 148 °C. Moreover, the inhibition of growth at 20 ppm in data set [1] is ≥ 80%. Moreover, in the data set on Plasmopara viticola, the pest or weed control at 200 ppm was ≥ 80%. Besides, the inhibition of growth at 20 ppm in data set [2] was ≥ 80%. For the same molecule, the pest or weed control at 200 ppm in the data set with Alternaria solani is ≥ 80%. In addition, in data set [5], the inhibition of growth at 20 ppm is ≥ 80%. In data set [6], the pest or weed control at 200 ppm is ≥ 80%. Moreover, in [8], the pest or weed control at 200 ppm is ≥ 80%. The pest or weed control at 200 ppm in the data set with Phytophthora infestans was ≥ 80%. In data set [10], the pest or weed control at 200 ppm is ≥ 80%. The inhibition of growth at 20 ppm in data set [7] was ≥ 80%.
Regarding `CO/C=C(\Oc1cc(-n2ccc(C(F)(F)Cl)n2)ccc1C)C(=O)OC` [Compound E-118, methyl (Z)-2-[5-[3-[chloro(difluoro)methyl]pyrazol-1-yl]-2-methyl-phenoxy]-3-methoxy-prop-2-enoate], the melting point is 146 to 148 °C. Moreover, the inhibition of growth at 20 ppm in data set [1] was ≥ 80%. For the same molecule, the pest or weed control at 200 ppm with Plasmopara viticola was ≥ 80%. In [2], the inhibition of growth at 20 ppm is ≥ 80%. Further, in [3], the pest or weed control at 200 ppm was ≥ 80%. In addition, in data set [4], the pest or weed control at 200 ppm was ≥ 80%. Besides, in [5], the inhibition of growth at 20 ppm was ≥ 80%. Besides, the pest or weed control at 200 ppm in data set [6] was ≥ 80%. Also, the pest or weed control at 200 ppm in data set [8] was ≥ 80%. Further, the pest or weed control at 200 ppm in the data set on Pyrenophora teres was ≥ 80%. Further, the pest or weed control at 200 ppm with Phytophthora infestans is ≥ 80%. In addition, the pest or weed control at 200 ppm in [10] was ≥ 80%. The inhibition of growth at 20 ppm in [7] is ≥ 80%.
Consider `CCON=C(C)c1cnn(-c2ccc(C)c(O/C(=C\OC)C(=O)OC)c2)n1` [Compound F-12, methyl (Z)-2-[5-[4-(N-ethoxy-C-methyl-carbonimidoyl)triazol-2-yl]-2-methyl-phenoxy]-3-methoxy-prop-2-enoate], for which the melting point was 113 to 116 °C. Besides, in [1], the inhibition of growth at 20 ppm is ≥ 80%. The pest or weed control at 200 ppm in the data set on Plasmopara viticola is ≥ 80%. Moreover, the inhibition of growth at 20 ppm in data set [2] was ≥ 80%. Besides, the pest or weed control at 200 ppm in data set [3] is ≥ 80%. For the same molecule, the pest or weed control at 200 ppm in [4] is ≥ 80%. In addition, the inhibition of growth at 20 ppm in data set [5] was ≥ 80%. In addition, the pest or weed control at 200 ppm in [6] was ≥ 80%. Further, the pest or weed control at 200 ppm in data set [8] was ≥ 80%. Moreover, in the data set with Pyrenophora teres, the pest or weed control at 200 ppm is ≥ 80%. Besides, the pest or weed control at 200 ppm in the data set on Phytophthora infestans was ≥ 80%. For the same molecule, the pest or weed control at 200 ppm in [10] was ≥ 80%. Further, in data set [7], the inhibition of growth at 20 ppm was ≥ 80%.
